From patent US6441036B1 (priority 1998, dated 2002)

Key:
[1] = High fat diet feeding, adipose tissue weights (Example 5); format: in vivo, Wistar Charles River rats; details: high fat diet + 0.4% TTA, three weeks; means ± SEM
Method: Male Wistar rats Charles River rats weighing 280-358 g were purchases from AnLab Ltd. (Prague, Czech Repubic) and housed in wire-mesh cages in a temperature (22±1° C.) and light-controlled (light from 7:00 a.m. to 7.00 p.m.) room. They were given free access to chow and water. Three rats were housed per cage. Weight gain and food intake were recorded daily.
High fat (HF): 1.9% gelatin, 5.7% wheat bran, 7.7% vitamins and minerals, 25.4% corn starch, 25.7% casein, 26.8% beef tallow and 7.1 % sunflower oil.
HF+TTA: Same +0.4% TTA dissolved in the beef tallow.
Male Wistar Charles River rats (280-360 g) were fed 3 different diets (see methods) for 3 weeks ad libitum. Afterwards, they were killed by decapitation, liver and epididymal adipose tissue pads were dissected out and weighed.

[2] = Euglycemic hyperinsulinemic clamp, high fat diet induced insulin resistance (Example 12); format: in vivo, Wistar Charles River rats; details: HF diet supplemented with TTA, 21 days; 45-90 minutes of clamp
Method: After 21 days on their respective diets (see above), the rats were anaesthetised by injection of xylazine hydrochloride (Rometar SPOFA, Prague, Czech Republic; 10 mg/ml) and ketamine hydrochloride (Narkamon SPOFA, Prague, Czech republic; 75 mg/ml), and fitted with chronic carotid artery and jugular vein cannulas as described by Koopmans et al. (Koopmans, S. J., et al., Biochim Biophys Acta, 1115, […] 1992.). The cannulated rats were allowed to recover for two days after surgery before the clamping studies which were carried out according to Kraegen et al. (Kraegen, E. W., et al., Am J Physiol, 248, E353-E362 1983.). Thus, on the third day after surgery, unrestrained conscious rats were given a continuous infusion of porcine insulin (Actrapid, Novo Nordisk, Denmark) at a dose of 6.4mU per kg per min to achieve plasma insulin levels in the upper physiological range. The arterial blood glucose concentration was clamped at the basal fasting level, by variable infusion of a 30% w/v glucose solution (Leciva, Prague, Czech Republic). […]
Rats weighing 330±20 g were divided into 3 groups (n=9) and fed with three different diets: standard rat chow, high fat diet (HF) and HF supplemented with TTA. […] The glucose infusion rate (GIR) was determined from the period of the clamp where glycemia got stabilised, i.e. between 45-90 minutes after clamp commencement. […]

[3] = Intravenous glucose tolerance test (IVGTT); format: in vivo; details: 5 weeks old Zucker (fa/fa) rats
Method: Male Zucker (fa/fa) rats (5 weeks old) were anaesthetised after a 5-hours fast, by intraperitoneal injection of sodium pentobarbital (50 mg/kg). The rats were injected with glucose (0.55 g/kg) in the saphenous vein and blood samples were collected from the tail vein in heparinized tubes at time 0, 5, 10, 15, 20 and 30 minutes after the glucose load. Samples were kept on ice, centrifuged and plasma was stored at −20° C. until analysis.

[4] = Plasma free fatty acids and ketone bodies in old obese Zucker rats; format: in vivo, obese Zucker (fa/fa) rats; details: 21 week-old male rats, standard diet enriched with 0.15% TTA for 15 days; means ± SD
Method: (§1) Glucose (GLU, Boehringer Mannheim, Germany), free fatty acids (NEFA, C ACS-ACOD kit; Wako Chemicals, Dalton, USA) and b-hydroxybutyrate (310-A kit; Sigma Diagnostics Inc., St. Louis, USA) concentrations were measured using enzymatic methods. Insulin concentrations were determined with radioimmunoassay by (CIS bio International, Gif sur Yvette, France) using rat insulin as standard in the Zucker rats. In the Wistar Charles River rats, plasma glucose concentrations were measured with the aid of Beckman Glucose Analyzer (Fullerton, Calif., USA). Plasma insulin levels were measured using a RIA kit from Linco Research Inc. (St. Charles, Mo., USA). Phospholipids were measured by the enzymatic method of bioMérieux, Marcy-l{grave over ( )}Etoile, France, Triacylglycerol by the Technicon Method no. SA4-0324L90, USA and Cholesterol by the Technicon Method no. SA4-0305L90, USA.
Data are means±SD of six animals in both the control- and the experimental group. Free fatty acids (FFA) and ketone bodies (4-hydroxy butyrate)were measured in plasma and 3-hydroxy-3-methylglutaryl (HMG)—CoA synthase activities were measured in mitochondrial fractions prepared from the liver from 21 week-old male obese Zucker (fa/fa) rats given either a standard diet (control) or a standard diet enriched with 0.15% TTA for 15 days.

[5] = Lipid lowering effect in obese Zucker fa/fa rats (Example 3); format: in vivo; details: 300 mg/day/kg by gavage once daily for 10 days; control palmitic acid
Method: as §1
Male obese Zucker fa/fa rats, weighing 100 g at the start of the experiment, were housed in pairs in metal wire cages in a room maintained at 12 h light-dark cycles and a constant temperature of 20±3° C. The animals were acclimatised for at least one week under these conditions before the start of the experiment.
TTA (tetradecylthioacetic acid) prepared in accordance with procedure described previously, and palmitic acid (control), was suspended in 0.5% (w/v) carboxymethyl cellulose (CMC). Six animals were used in both groups. TTA (tetradecylthioacetic acid) and palmitic acid were administered at a dose of 300 mg/day/kg body weight, by gastric intubation (gavage) once daily for 10 days. The rats were fasted for 2 hours before termination of the experiment. Blood and organs were collected. Lipid concentrations in plasma were determined using an autoanalyzer, as described in the method section.

[6] = Plasma lipids after feeding moderate doses to animals; format: in vivo, rats, mice, rabbits and dogs; details: within days of treatment

Question: With Tetradecylthioacetic acid [TTA] as the substance, how does the Epididymal adipose tissue [1] read?
Answer: 3.1 ± 0.2 g

Question: And the Retroperitoneal adipose tissue [1]?
Answer: 2.7 ± 0.2 g

Question: What about the “Glucose infusion rate (GIR) in clamp (FIG. 4)” value [2] of the same substance?
Answer: fully normal

Question: And the “IVGTT glucose curves (FIG. 7B)” value ([3]; TTA treated versus control)?
Answer: normal and comparable

Question: What about the “Plasma insulin response to glucose (FIG. 7A)” value ([3]; glucose 0.55 g/kg i.v.) of the same substance?
Answer: significantly lower

Question: And the “4-OH butyrate (plasma ketone bodies)” value [4]?
Answer: 3.44 ± 1.37 mmol/L

Question: And the “FFA (plasma free fatty acids)” value [4]?
Answer: 0.53 ± 0.21 mEq/L

Question: What about the “Decreased lipid level in plasma: Cholesterol” value [5] of the same substance?
Answer: 73 % of control

Question: And the “Decreased lipid level in plasma: Phospholipids” value [5]?
Answer: 71 % of control

Question: What about the “Decreased lipid level in plasma: Triglycerides” value [5] of the same substance?
Answer: 72 % of control

Question: And the “Plasma cholesterol and triacylglycerol levels” value [6]?
Answer: decreased
